{
  "source": "patent US20220323761A1",
  "about": "“METHOD FOR INDUCING HIBERNATION-LIKE STATE AND DEVICE SAME” (University of Tsukuba, priority 2019, published 2022)",
  "key": {"[1]": {"tested_on": "Q-neurons in the AVPe, MPA and Pe", "assay": "Fos immunostaining of brain sections of Q-hM3D mice after CNO IP", "assay_type": "in vivo", "settings": "90 minutes after CNO IP", "description": "Each mouse was deeply anesthetized with isoflurane, transcardially perfused with 10% sucrose in water, and then perfused with ice-cooled 4% paraformaldehyde (4% PFA) in a 0.1 M phosphate buffer having a pH of 7.4, and the brain was removed. After being left in the 4% PFA overnight at 4° C., the brain was fixed, incubated overnight at 4° C. in a 0.1 M phosphate buffered saline (PBS) having a pH of 7.4, in 30% sucrose, immersed in a Tissuue-Tek O.C.T. compound (Sakura) in a cryomold, and frozen at −80° C. until sectioned. With the use of a cryostat (CM1860, Leica), the brain was sliced into coronal sections in four equal series every 50 μm, collected in a 6-well plate filled with ice-cooled PBS, and washed three times with PBS at room temperature (RT). Unless otherwise specified, the following incubation process was carried out while gently shaking on an orbital shaker. […]\nThe primary antibodies used in this research were rabbit anti-cFos (1:4000, ABE457, Millipore), goat anti-mCherry (1:15000, AB0040-200, SICGEN), rat anti-GFP (1:5000, 04404-84, NACALAI TESQUE), mouse anti-TH (1:1000, sc-25269, Santa Cruz Biotechnology), mouse anti-orexin A (1:200, sc-80263, Santa Cruz Biotechnology), and rabbit anti-MCH (1:2000, M8440, SIGMA). […] Brain regions were determined using a mouse brain map from Paxinos and Franklin^36."}, "[2]": {"tested_on": "hM3Dq-mCherry expressing neurons", "assay": "Electrophysiological study of hypothalamus slices, current-clamp firing", "assay_type": "cell-based", "settings": "bath-application, CNO 1 μM, slices of Q-hM3D mice", "description": "The mice were decapitated under deep anesthesia using isoflurane (Pfizer). The brains were extracted and cooled in an ice-cold cutting solution containing the following (mM): 125 mM choline chloride, 25 mM NaHCO3, 10 mM D(+)-glucose, 7 mM MgCl2, 2.5 mM KCl, 1.25 mM NaH2PO4, and 0.5 mM CaCl2) bubbled with O2 (95%) and CO2 (5%). Horizontal brain slices (thickness of 250 μm) including the hypothalamus were prepared using a vibratome (VT1200S, Leica) and were maintained at room temperature for one hour in artificial CSF (ACSF) containing the following (mM): 125 mM NaCl, 26 mM NaHCO3, 10 mM D(+)-glucose, 2.5 mM KCl, 2 mM CaCl2), and 1 mM MgSO4 bubbled with O2 (95%) and CO2 (5%). The electrodes (5 to 8 MΩ) were filled with an internal solution containing the following (mM): 125 mM K-gluconate, 10 mM HEPES, 10 mM phosphocreatine, 0.05 mM tolbutamide, 4 mM NaCl, 4 mM ATP, 2 mM MgCl2, 0.4 mM GTP, and 0.2 mM EGTA, with a pH of 7.3 and adjusted with KOH). Firing of hM3Dq-mCherry expressing neurons was recorded in a current-clamp mode at a temperature of 30° C. CNO (1 μM) was bath-applied, and the effect was examined. The membrane voltage and data acquisition were controlled using a combination of the MultiClamp 700B amplifier, the Digidata 1440A A/D converter and Clampex 10.3 software (Molecular Devices). […]"}},
  "data": [
    {"smiles": "C[N+]1([O-])CCN(C2=Nc3cc(Cl)ccc3Nc3ccccc32)CC1", "note": "[CNO, clozapine N-oxide]", "values": [
      {"measurement": "in vivo excitation of neurons (mCherry and Fos double positive)", "setting": "[1]", "result": "confirmed"},
      {"measurement": "excitation of mCherry-positive neurons", "setting": "[2]", "result": "strongly excited"}
    ]}
  ]
}
